Measured values taken from PubChem BioAssay AID602156 (GNF / Scripps Winzeler lab, 2011).
Calls of active or inactive are those of the source. No rule for the calls is given here.

tested on: P. yoelii liver stage in HepG2-A16-CD81EGFP, imaging; test: Plasmodium liver-stage growth inhibition, dose response, imaging, Malaria Box, P. yoelii, HepG2-A16-CD81EGFP (AID 602156);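 also: infected cells exposed to compound for 48 hours before fixation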

SMILES	IC50
CCCC(=O)NC(c1ccc(Cl)cc1)c1ccc2cccnc2c1O (stereo unspecified)	190 nM
CCOc1ccc(Nc2cc(=O)oc3ccccc23)cc1	502 nM
O=C(Nc1c2ccccc2nc2ccccc12)c1cc(Cl)ccc1O	181 nM
CCCCN(CCCC)S(=O)(=O)c1ccc(NC(=O)c2ccco2)cc1	377 nM
CCOc1ccc2[nH]c(=O)c(CN(CCN(CC)CC)C(=S)NCCCN(CC)CC)cc2c1	2170 nM
CCCCNC(=O)C(CC)Sc1nnc(-c2ccc(C)cc2)c(-c2ccc(C)cc2)n1 (stereo unspecified)	291 nM
O=C1c2ccccc2C2=Nc3ccccc3SC(c3ccccc3F)C12 (stereo unspecified)	239 nM
CCOC(=O)c1ccc(OCC2c3cc(OC)c(OC)cc3CCN2C(=O)c2ccc([N+](=O)[O-])cc2)cc1 (stereo unspecified)	> 10000 nM (inactive)
O=c1c2ccccc2[nH]c2ccc(F)cc12	223 nM
O=C(Cn1ccc(=NCc2ccccc2)cc1)c1ccc(I)cc1	825 nM
Cc1cc(N)c2ccccc2[n+]1CCCCCCCCCC[n+]1c(C)cc(N)c2ccccc21	566 nM
Oc1cccc(Nc2nc(NCC3CCCO3)c3ccccc3n2)c1 (stereo unspecified)	1040 nM
O=C(NC(=C(Cl)Cl)[P+](c1ccccc1)(c1ccccc1)c1ccccc1)c1ccc(F)cc1	14.5 nM
CC(C)(C)C1CCc2[nH]c3ccccc3c(=O)c2C1 (stereo unspecified)	98.3 nM
CC(C)(C)c1ccc(Oc2ccc(N3C(=O)C4CC=CCC4C3=O)cc2)cc1 (stereo unspecified)	> 10000 nM (inactive)
O=C1C2=C(Nc3ccccc3SC2c2ccco2)c2ccccc21 (stereo unspecified)	113 nM
